# According to publication PMC9241057, “Ru(II)arene(N^N bpy/phen)-based RAPTA complexes for in vitro anti-tumour activity in human glioblastoma cancer cell lines and in vivo toxicity studies in a zebrafish model” (RSC Advances, 2022):
# Test system: U87MG cells
# Experiment: Cell cycle analysis by flow cytometry
# Assay type: cell-based, human
# Conditions: 0.93 μM
# Method: As per the results of the MTT assay, there was an inhibition of cell proliferation that was further validated by determining the cellular damage, DNA damage and oxidative stress. Therefore, we went forward to investigate the DNA content by flow cytometry. […] We also observed a low S phase and M phase after the complex treatment (Fig. 4).
# Fig. 4 Cell cycle analysis with the control U87MG cells (above) and the treatment of 0.93 μM 4d (below). TEXT PRINTED IN THE PICTURE: 4d: G0-G1(70.49%); S(21.32%); M(2.49%); Sub G1(3.48%) DOUBTS OF THE COPYIST ABOUT THIS PICTURE: 4d, G0-G1: 70.49% - blurred print, 9 could be 8 / 4d, S: 21.32% - blurred print, 3 could be 8 / 4d, M: 2.49% - blurred print, 9 could be 8 / 4d, Sub G1: 3.48% - blurred print, 3 and 8 not certain (3.46 or 3.48) / The Control plots (untreated cells, not a substance) print P2(43.61%), P3(29.04%), P4(24.36%), Sub G1(6.24%); these are left out of the lines, and their digits are blurred too
structure (smiles),measurement,value
"C1N2CN3CN1CP(C2)C3.Cc1ccc(C(C)C)cc1.F[P-](F)(F)(F)(F)F.F[P-](F)(F)(F)(F)F.[Ru+2].c1ccc(-c2ccnc3c2ccc2c(-c4ccccc4)ccnc23)cc1 [4d, [(η^6-p-Cymene)Ru^II(κ^2-N,N-4,7diphenylphenanthroline)(PTA)]·2PF6]",G0/G1 phase,~70.49%
